According to ChEMBL document CHEMBL1151531, “Taxol structure-activity relationships: synthesis and biological evaluation of taxol analogs modified at C-7” (Bioorg Med Chem Lett, 1994):

What was measured:
HCT-116 = assay: In vitro inhibition of proliferation of human colon cancer line 116 after 72 hrs incubation.; format: functional, cell-based; settings: HCT-116, 72 h
[1] = target: Tubulin alpha chain (Sus scrofa) (UniProt P02550); assay: Initial tubulin polymerization rate relative to taxol.; format: functional
Tubulin alpha chain (Sus scrofa), sequence (P02550 whole entry, looked up): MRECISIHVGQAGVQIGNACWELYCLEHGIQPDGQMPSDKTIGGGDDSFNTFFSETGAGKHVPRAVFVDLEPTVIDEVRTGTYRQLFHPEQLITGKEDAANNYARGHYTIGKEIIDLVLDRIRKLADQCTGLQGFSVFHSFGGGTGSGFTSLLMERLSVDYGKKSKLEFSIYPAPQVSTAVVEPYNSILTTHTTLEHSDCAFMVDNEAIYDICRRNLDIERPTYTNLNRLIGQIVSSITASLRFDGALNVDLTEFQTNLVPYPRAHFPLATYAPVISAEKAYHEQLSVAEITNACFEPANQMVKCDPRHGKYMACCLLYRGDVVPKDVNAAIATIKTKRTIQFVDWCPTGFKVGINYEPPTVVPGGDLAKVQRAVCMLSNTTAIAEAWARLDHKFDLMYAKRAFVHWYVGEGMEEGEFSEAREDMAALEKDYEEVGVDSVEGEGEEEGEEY

Mus musculus [2] = assay: Compound was evaluated in vivo against i.p. implanetd M109 tumor on day 5 and 8 post implantation at a dose of 32 mg/kg/injection when administered i.p; format: functional; settings: route intraperitoneal
Mus musculus [3] = assay: Compound was evaluated in vivo against i.p. implanetd M109 tumor on day 5 and 8 post implantation at a dose of 30 mg/kg/injection when administered i.p; format: functional; settings: route intraperitoneal
Mus musculus [4] = assay: Compound was evaluated in vivo against i.p. implanetd M109 tumor on day 5 and 8 post implantation at a dose of 80 mg/kg/injection when administered i.p; format: functional; settings: route intraperitoneal
Mus musculus [5] = assay: Compound was evaluated in vivo against i.p. implanted M109 tumor on day 5 and 8 post implantation at a dose of 50-75 mg/kg/injection when administered i.p; format: functional
Mus musculus [6] = assay: Compound was evaluated in vivo against i.p. implanetd M109 tumor on day 5 and 8 post implantation at a dose of 40 mg/kg/injection when administered i.p; format: functional; settings: route intraperitoneal
Mus musculus [7] = assay: Compound was evaluated in vivo against i.p. implanetd M109 tumor on day 5 and 8 post implantation at a dose of 60 mg/kg/injection when administered i.p; format: functional; settings: route intraperitoneal
Mus musculus [8] = assay: Compound was evaluated in vivo against i.p. implanetd M109 tumor on day 5 and 8 post implantation at a dose of 50 (mg/kg/inj)when administered i.p; format: functional
Mus musculus [9] = assay: Compound was evaluated in vivo against i.p. implanetd M109 tumor on day 5 and 8 post implantation at a dose of 132 mg/kg/injection when administered i.p; format: functional; settings: route intraperitoneal
Mus musculus [10] = assay: Compound was evaluated in vivo against i.p. implanetd M109 tumor on day 5 and 8 post implantation when administered i.p.; Scheduled; format: functional, organism-based
Mus musculus [11] = assay: Compound was evaluated in vivo against i.p. implanetd M109 tumor on day 5 and 8 post implantation at a dose of 64 mg/kg/injection when administered i.p; format: functional; settings: route intraperitoneal

Compound | IC50 (HCT-116) | Initial rate ratio [1] | also measured
CC[Si](CC)(CC)OC1C[C@H]2OC[C@@]2(OC(C)=O)C2[C@H](OC(=O)c3ccccc3)[C@]3(O)C[C@H](OC(=O)[C@H](O)[C@@H](NC(=O)c4ccccc4)c4ccccc4)C(C)=C([C@@H](OC(C)=O)C(=O)[C@]12C)C3(C)C (stereo partly drawn) | > 78 nM | 0.53 | 
CC(=O)O[C@H]1C(=O)[C@@]2(C)C([C@H](OC(=O)c3ccccc3)[C@]3(O)C[C@H](OC(=O)[C@H](O)[C@@H](NC(=O)c4ccccc4)c4ccccc4)C(C)=C1C3(C)C)[C@]1(OC(C)=O)CO[C@@H]1C[C@H]2O (stereo partly drawn) | 2 nM |  | Max T/C (Mus musculus [2]): 154; Max T/C (Mus musculus [3]): 126
CC(=O)O[C@H]1C(=O)[C@]23C[C@H]2C[C@H]2OC[C@@]2(OC(C)=O)C3[C@H](OC(=O)c2ccccc2)[C@]2(O)C[C@H](OC(=O)[C@H](O)[C@@H](NC(=O)c3ccccc3)c3ccccc3)C(C)=C1C2(C)C (stereo partly drawn) | 8 nM | 0.56 | Max T/C (Mus musculus [4]): 156
CC(=O)O[C@H]1C(=O)[C@@]2(C)[C@H]([C@H](OC(=O)c3ccccc3)[C@]3(O)C[C@H](OC(=O)[C@H](O)[C@@H](NC(=O)c4ccccc4)c4ccccc4)C(C)=C1C3(C)C)[C@]1(OC(C)=O)CO[C@@H]1C[C@@H]2O [PACLITAXEL] |  |  | Max T/C (Mus musculus [5]): 276
CC(=O)O[C@H]1C(=O)[C@@]2(C)C([C@H](OC(=O)c3ccccc3)[C@]3(O)C[C@H](OC(=O)[C@H](O)[C@@H](NC(=O)OC(C)(C)C)c4ccccc4)C(C)=C1C3(C)C)[C@]1(OC(C)=O)CO[C@@H]1C[C@H]2F (stereo partly drawn) | 4.7 nM | 0.8 | Max T/C (Mus musculus [6]): 147
CC(=O)O[C@H]1C(=O)[C@@]2(C)C([C@H](OC(=O)c3ccccc3)[C@]3(O)C[C@H](OC(=O)[C@H](O)[C@@H](NC(=O)c4ccccc4)c4ccccc4)C(C)=C1C3(C)C)[C@]1(OC(C)=O)CO[C@@H]1C[C@@H]2OS(C)(=O)=O (stereo partly drawn) |  | 1.1 | 
CCCCNC(=O)OC1C[C@H]2OC[C@@]2(OC(C)=O)C2[C@H](OC(=O)c3ccccc3)[C@]3(O)C[C@H](OC(=O)[C@H](O)[C@@H](NC(=O)c4ccccc4)c4ccccc4)C(C)=C([C@@H](OC(C)=O)C(=O)[C@]12C)C3(C)C (stereo partly drawn) | 46 nM | 0.96 | 
CC(=O)O[C@H]1C(=O)[C@]2(C)C=C[C@H]3OC[C@@]3(OC(C)=O)C2[C@H](OC(=O)c2ccccc2)[C@]2(O)C[C@H](OC(=O)[C@H](O)[C@@H](NC(=O)c3ccccc3)c3ccccc3)C(C)=C1C2(C)C (stereo partly drawn) | 5 nM | 1.31 | Max T/C (Mus musculus [7]): 161
CC(=O)O[C@H]1C(=O)[C@]2(C)C(OC(=O)NCCCC(=O)O)C[C@H]3OC[C@@]3(OC(C)=O)C2[C@H](OC(=O)c2ccccc2)[C@]2(O)C[C@H](OC(=O)[C@H](O)[C@@H](NC(=O)c3ccccc3)c3ccccc3)C(C)=C1C2(C)C (stereo partly drawn) | > 3900 nM | 0.71 | 
CC(=O)O[C@H]1C(=O)[C@]2(C)CC[C@H]3OC[C@@]3(OC(C)=O)C2[C@H](OC(=O)c2ccccc2)[C@]2(O)C[C@H](OC(=O)[C@H](O)[C@@H](NC(=O)c3ccccc3)c3ccccc3)C(C)=C1C2(C)C (stereo partly drawn) | 4 nM | 0.23 | Max T/C (Mus musculus [8]): 157
CC(=O)O[C@H]1C(=O)[C@]2(C)C(OC(=O)NCCN(C)C)C[C@H]3OC[C@@]3(OC(C)=O)C2[C@H](OC(=O)c2ccccc2)[C@]2(O)C[C@H](OC(=O)[C@H](O)[C@@H](NC(=O)c3ccccc3)c3ccccc3)C(C)=C1C2(C)C (stereo partly drawn) | > 100 nM | 0.4 | 
CC(=O)O[C@H]1C(=O)[C@]2(C)C(O[Si](C)(C)C)C[C@H]3OC[C@@]3(OC(C)=O)C2[C@H](OC(=O)c2ccccc2)[C@]2(O)C[C@H](OC(=O)[C@H](O)[C@@H](NC(=O)c3ccccc3)c3ccccc3)C(C)=C1C2(C)C (stereo partly drawn) | > 60 nM | 0 | 
CC(=O)O[C@H]1C(=O)[C@@]2(C)C([C@H](OC(=O)c3ccccc3)[C@]3(O)C[C@H](OC(=O)[C@H](O)[C@@H](NC(=O)c4ccccc4)c4ccccc4)C(C)=C1C3(C)C)[C@]1(OC(C)=O)CO[C@@H]1C[C@H]2F (stereo partly drawn) | 11 nM | 1.45 | Max T/C (Mus musculus [9]): 185
CC(=O)O[C@@]12CO[C@@H]1C[C@H](O)[C@@]1(C)C(=O)[C@H](O)C3=C(C)[C@@H](OC(=O)[C@H](O)[C@@H](NC(=O)OC(C)(C)C)c4ccccc4)C[C@@](O)([C@@H](OC(=O)c4ccccc4)[C@H]21)C3(C)C [DOCETAXEL] | 3 nM | 2 | Max T/C (Mus musculus [10]): Scheduled
CCOC(=O)O[C@H]1C[C@H]2OC[C@@]2(OC(C)=O)C2[C@H](OC(=O)c3ccccc3)[C@]3(O)C[C@H](OC(=O)[C@H](O)[C@@H](NC(=O)c4ccccc4)c4ccccc4)C(C)=C([C@@H](OC(C)=O)C(=O)[C@@]21C)C3(C)C (stereo partly drawn) | 6 nM | 0.72 | Max T/C (Mus musculus [6]): 289
CC(=O)O[C@H]1C(=O)[C@@]2(C)C([C@H](OC(=O)c3ccccc3)[C@]3(O)C[C@H](OC(=O)[C@H](O)[C@@H](NC(=O)c4ccccc4)c4ccccc4)C(C)=C1C3(C)C)[C@]1(OC(C)=O)CO[C@@H]1C[C@@H]2OC(=O)CCl (stereo partly drawn) | 7 nM | 0.81 | 
CC(=O)O[C@H]1C(=O)[C@]2(C)CC[C@H]3OC[C@@]3(OC(C)=O)C2[C@H](OC(=O)c2ccccc2)[C@]2(O)C[C@H](OC(=O)[C@H](O)[C@@H](NC(=O)OC(C)(C)C)c3ccccc3)C(C)=C1C2(C)C (stereo partly drawn) | 1.6 nM | 0.8 | Max T/C (Mus musculus [11]): 156
CC(=O)O[C@H]1C(=O)[C@]2(C)C(O[Si](C)(C)c3ccccc3)C[C@H]3OC[C@@]3(OC(C)=O)C2[C@H](OC(=O)c2ccccc2)[C@]2(O)C[C@H](OC(=O)[C@H](O)[C@@H](NC(=O)c3ccccc3)c3ccccc3)C(C)=C1C2(C)C (stereo partly drawn) | > 78 nM | 0 | 
